# Measurements taken from ChEMBL document CHEMBL4665755, “Discovery of a phenylpyrazole amide ROCK inhibitor as a tool molecule for in vivo studies” (Bioorg Med Chem Lett, 2020).
# Experiments:
# [1] = Metabolic stability in human liver microsomes assessed as half life; assay type: ADME, Microsome
# [2] = Metabolic stability in human liver microsomes assessed as parent compound remaining at 0.5 uM after 10 mins; assay type: ADME, Microsome; settings: read-out: Stabilty
# [3] = AUC in mouse at 10 mg/kg, po; assay type: ADME, organism-based; parameters: dose 10 mg/kg; settings: in vivo
# [4] = Cmax in mouse at 10 mg/kg, po; assay type: ADME, organism-based; parameters: route oral, dose 10 mg/kg; settings: in vivo
# [5] = Permeability of the compound at pH 5.5 by PAMPA; assay type: ADME; settings: read-out: permeability
# [6] = Permeability of the compound at pH 7.4 by PAMPA; assay type: ADME; settings: read-out: permeability
# [7] = AUC in mouse at 2 mg/kg, po; assay type: ADME, organism-based; parameters: dose 2 mg/kg; settings: in vivo
# [8] = Cmax in mouse at 2 mg/kg, po; assay type: ADME, organism-based; parameters: route oral, dose 2 mg/kg; settings: in vivo
compound,measurement,setting,value
COc1cc(NC(=O)[C@@H](N)CCc2ccccc2)ccc1-c1cn[nH]c1,half-life,[1],62 min
CCc1cc(C(=O)N[C@H](C)c2cccc(OC)c2)ccc1-c1cn[nH]c1,"remaining at 10 min, 0.5 µM",[2],38%
COc1cc(C(=O)N[C@H](CN)c2ccccc2)ccc1-c1cn[nH]c1,"remaining at 10 min, 0.5 µM",[2],93%
COc1cc(NC(=O)[C@H](N)CCc2ccccc2)ccc1-c1cn[nH]c1,AUC,[3],140 µM·h
same,Cmax,[4],28 µM
same,Papp,[5],45 ×10⁻⁶ cm/s
same,Papp,[6],74 ×10⁻⁶ cm/s
same,half-life,[1],41 min
COc1cccc([C@@H](C)NC(=O)c2ccc(-c3cn[nH]c3)c(C#N)c2)c1,"remaining at 10 min, 0.5 µM",[2],67%
COc1cc(NC(=O)[C@H](O)c2ccccc2Cl)ccc1-c1cn[nH]c1,half-life,[1],15 min
COc1cc(C(=O)N[C@H](C)c2ccccc2F)ccc1-c1cn[nH]c1,"remaining at 10 min, 0.5 µM",[2],73%
COc1cccc([C@@H](C)NC(=O)c2ccc(-c3cn[nH]c3)c(OC)c2F)c1,"remaining at 10 min, 0.5 µM",[2],57%
COc1cccc([C@@H](C)NC(=O)c2ccc(-c3cn[nH]c3)cc2OC)c1,"remaining at 10 min, 0.5 µM",[2],49%
COc1cc(NC(=O)[C@H](N)Cc2ccc(Cl)c(Cl)c2)ccc1-c1cn[nH]c1,half-life,[1],31 min
COc1cc(C(=O)N[C@H](CO)c2c(F)cccc2F)ccc1-c1cn[nH]c1,"remaining at 10 min, 0.5 µM",[2],90%
COc1cc(C(=O)N[C@@H](c2ccccc2F)C(C)(C)O)ccc1-c1cn[nH]c1,AUC,[7],5 µM·h
same,Cmax,[8],1.3 µM
same,Papp,[5],52 ×10⁻⁶ cm/s
same,Papp,[6],44 ×10⁻⁶ cm/s
same,"remaining at 10 min, 0.5 µM",[2],92%
COc1cccc([C@@H](C)NC(=O)c2ccc(-c3cn[nH]c3)c(C(F)(F)F)c2)c1,"remaining at 10 min, 0.5 µM",[2],44%
COc1cc(NC(=O)[C@H](N)c2ccccc2Cl)ccc1-c1cn[nH]c1,half-life,[1],20 min
COc1cc(C(=O)N[C@H](CO)c2ccccc2)ccc1-c1cn[nH]c1,AUC,[3],90 µM·h
same,Cmax,[4],21 µM
same,Papp,[5],10.5 ×10⁻⁶ cm/s
same,Papp,[6],11 ×10⁻⁶ cm/s
same,"remaining at 10 min, 0.5 µM",[2],87%
COc1cccc(CNC(=O)c2ccc(-c3cn[nH]c3)c(OC)c2)c1,"remaining at 10 min, 0.5 µM",[2],49%
COc1cccc([C@@H](C)NC(=O)c2ccc(-c3cn[nH]c3)c(OC)c2)c1,"remaining at 10 min, 0.5 µM",[2],32%
COc1cccc([C@@H](C)NC(=O)c2ccc(-c3cn[nH]c3)c(C)c2)c1,AUC,[3],35 µM·h
same,Cmax,[4],12 µM
same,Papp,[5],29 ×10⁻⁶ cm/s
same,Papp,[6],20 ×10⁻⁶ cm/s
same,"remaining at 10 min, 0.5 µM",[2],74%
COc1cccc([C@@H](C)NC(=O)c2ccc(-c3cn[nH]c3)c(Cl)c2)c1,"remaining at 10 min, 0.5 µM",[2],59%
COc1cc(NC(=O)Cc2ccccc2Cl)ccc1-c1cn[nH]c1,half-life,[1],36 min
COc1cc(C(=O)N[C@H](C)c2c(F)cccc2F)ccc1-c1cn[nH]c1,AUC,[3],140 µM·h
same,Cmax,[4],23 µM
same,Papp,[5],61 ×10⁻⁶ cm/s
same,Papp,[6],61 ×10⁻⁶ cm/s
same,"remaining at 10 min, 0.5 µM",[2],79%
